# Tests used:
# PC-3 cells [1] = experiment: MTS cell proliferation assay, PC-3; format: cell-based, human; conditions: for IC50: Homo sapiens
# Description: Human BJ fibroblasts (American Type Cell Culture Collection, Manassas, VA, USA, CRL-2522) and human prostate cancer cell line PC-3 (American Type Cell Culture Collection, Manassas, VA, USA, CRL-1435), derived from bone metastases, were routinely grown in […]) Medium (ThermoFisher, Waltham, MA, USA, 21127-022) and supplemented with heat-inactivated 10% Fetal Bovine Serum (Biowest, France, […]) and 1% antibiotic solution (Biowest, Nuaillé, France, L0022), in a humidified 5% CO2 atmosphere at 37 °C. Cells were used between 3 and 20 passages. The 96-well plates were prepared by seeding 5 × 10^3 or 2.5 × 10^3 cells per well, for 24 and 48 h treatments, respectively, with at least five technical and two biological repeats. […] The cells were treated with either the Z conformer of 17j, with continuous illumination with 525 nm light, or the E conformer. The Z conformer was prepared by illuminating its DMSO solution with 525 nm light overnight. The cell proliferation was analyzed with CellTiter Aqueous One Solution Cell Proliferation MTS (3-(4,5-dimethylthiazol-2-yl)-5-(3-carboxymethoxyphenyl)-2-(4-sulfophenyl)-2H-tetrazolium) Assay (Promega, Madison, WI, USA, G5430) after 24 or 48 h of treatment. The absorbance was measured at 490 and 670 nm with FLUOStar Omega plate reader (BMG LABTECH GmbH, Ortenberg, Germany). The statistical analysis was performed within R 4.5.1 project. […] The log-logistic four parametric model (4PL), with the lower limit boundary set to 0 and group fitting, was used, as available in the drc package, to fit cell proliferation data. […] The assessment metrics for model goodness of fit were performed with functions available in the drc package and with custom ones. When appropriate, the delta method was applied to obtain error of central tendency. To assess the goodness of fit for each of the biological replicates, deviance R^2 (DR^2) was calculated and assessed. […] The DR^2 was calculated according to the following Equation: 1 - (Dres/Dnull), where Dres-residual deviance and Dnull-null deviance (deviance of the model with mean as a predicted value). The null hypothesis was assessed with the two-way ANOVA with Tukey's post hoc test for multiple comparisons or with the two-way t-test when only two groups were compared. The differences in the cell cycle percentages were assessed with the two-way ANOVA with Tukey's post hoc test.
# PC-3 cells [2] = experiment: Cell cycle analysis by flow cytometry, PC-3; format: cell-based, human; conditions: Z conformer, 24 h; for percentage of cells in the G2/M phase: control 26.5%
# Description: (§1) The BJ or PC-3 cells were treated as described previously, with the exception that 0.15 × 10^6 cells per well were seeded in 6-well plates. After 24 h of treatment, cells were harvested by trypsinization (Biowest, Nuaillé, France, L0931), washed twice, resuspended in PBS, and added to cold 70% ethanol for overnight fixation at −20 °C. Subsequently, cells were centrifuged and resuspended in PBS containing 5 µg/mL of propidium iodide in PBS (Sigma-Aldrich, St. Louis, MO, USA, 4170), 0.1% Triton X-100, and 10 µg/mL of DNAse-free RNAse (A&A Biotechnology, Gdansk, Poland, 1006-10) in the dark for 4 h at 37 °C. FACS analysis was performed using a FACSCanto II flow cytometer and FACSDiva, version 9.0 software (BD Biosciences, San Jose, CA, USA). Flow rate was set to about 1000 events/cells per second. Signals from at least 10,000 events per sample were captured. The percentages of PC-3 cells in cell cycle phases (G0/G1, S, and G2/M) were determined using ModFit LT 4.1.7 (Verity Software House, Topsham, ME, USA).
# BJ fibroblasts = experiment: Cell cycle analysis by flow cytometry, BJ fibroblasts; format: cell-based, human; conditions: Z conformer, concentration not given
# Description: as §1
# [3] = Changes over time of Z to E transition by 19F NMR; format: physicochemical; conditions: light 525 nm, 100 mM in DMSO
# Source text: We can observe that for electromagnetic radiation in the range of wavelengths 390 nm to 610 nm, transitions from E to Z of about 0–76% are obtained. The best results for all compounds are in visible wavelengths 505 nm or 525 nm (30.59–75.44%). From analyzing Figure 2 we can draw the following conclusions: all synthesized compounds undergo switching under visible light (this is important because UV radiation can damage the DNA of cells, inhibiting replication and, as a result, preventing cell division). For the 2,6-difluoro substituents (17i), (17j), (17k), and (17l) with values of 74.84%, 73.2%, 74.39%, and 75.44%, respectively, the largest share of the Z configuration is at (525 nm) and, for the rest of (17a), (17b), (17c), (17e), (17f), and (17g), it is in range of 30.57–47.13% at 505 nm. […] Multiple cycles of photoreversible switching under alternating green and blue light irradiation, with no significant photobleaching or degradation, confirmed the repeatable and robust photochromic conversion of the synthesized azobenzenes (Figure 2b). Then we measured changes over time (transitions from Z to E, upon irradiation with 505 nm for (17a–17c) and (17e–17g), and 525 nm for (17i–17l) compounds (Figure 3, and see Section S4.3 in Supplementary Materials).
# [4] = UV–VIS spectra of E/Z isomers in DMSO; format: physicochemical
# Description: For this purpose, the UV–VIS spectra were measured for all synthesized hybrids (17a–17l) at concentrations from 20 to 500 µM in dimethyl sulfoxide (DMSO) in light at λ 505 nm and for (17a–17c), (17e–17g), and (17i–17l) at λ 525 nm, respectively, as detailed in Table 1 (see Section S4.4 in Supplementary Materials).
smiles,measurement,setting,value
COc1cc(/C=C/C(=O)c2cccc(/N=N/c3c(F)cccc3F)c2)cc(OC)c1 [Compound 17j],IC50 difference between PC-3 and BJ cells,PC-3 cells [1]; E conformer,2.2 fold
same,normalized asymptote (normalized limit),"PC-3 cells [1]; E conformer, 24 h",50.0 ± 9.9%
same,normalized asymptote (normalized limit),"PC-3 cells [1]; E conformer, 48 h",15.0 ± 0.2%
same,IC50,"PC-3 cells [1]; PC-3, 24 h, E conformer, 24 h incubation",14.6 ± 1 µM
same,IC50,"PC-3 cells [1]; PC-3, 24 h, Z conformer, 525 nm illumination, 24 h treatment",12 ± 4.42 µM
same,IC50,"PC-3 cells [1]; PC-3, 48 h, E conformer, 48 h incubation",5.8 ± 0.8 µM
same,IC50,"PC-3 cells [1]; PC-3, 48 h, Z conformer, 525 nm illumination, 48 h treatment",4.75 ± 1 µM
same,normalized asymptote (ratio of lower to upper asymptote),"PC-3 cells [1]; Z conformer, 24 h",44.9 ± 3.7%
same,normalized asymptote (ratio of lower to upper asymptote),"PC-3 cells [1]; Z conformer, 48 h",0.9 ± 0.9%
same,percentage of cells in the G2/M phase,PC-3 cells [2]; 20 µM,30.2%
same,percentage of cells in the S phase,PC-3 cells [2]; 30 µM,28.8%
same,percentage of cells in the G2/M phase,PC-3 cells [2]; 30 µM,37.0%
same,percentage of cells in the S phase,PC-3 cells [2]; 40 µM,31%
same,percentage of cells in the G2/M phase,PC-3 cells [2]; 40 µM,32.1%
same,cells undergoing the G0/G1 phase,BJ fibroblasts; decrease from 86.4,51.5%
same,cells in the S phase,BJ fibroblasts; increase from 0.4,8%
same,cells in the G2/M phase,BJ fibroblasts; increase from 11.9,15.6%
same,"Z isomer, changes over time",[3]; 0 h,73.2%
same,"Z isomer, changes over time",[3]; 1 h,72.55%
same,"Z isomer, changes over time",[3]; 2 h,71.89%
same,"Z isomer, changes over time",[3]; 3 h,71.23%
same,"Z isomer, changes over time",[3]; 4 h,71%
same,"Z isomer, changes over time",[3]; 5 h,70.01%
same,"Z isomer, changes over time",[3]; 6 h,69.58%
same,"Z isomer, changes over time",[3]; 7 h,69.12%
same,"Z isomer, changes over time",[3]; 8 h,67.9%
same,Δ (Z to E change 0 h to 8 h),[3],5.3%
same,εmax (n→π*),[4]; E isomer,922 dm^3·mol^−1·cm^−1
same,λmax n→π* (E),[4]; E isomer,448.3 nm
same,εmax (n→π*),[4]; Z isomer,1130 dm^3·mol^−1·cm^−1
same,λmax n→π* (Z),[4]; Z isomer,417.4 nm
same,Δ λmax n→π*,[4]; between E and Z isomers,30.9 nm

# — PMC12844124, “Synthesis and Study of Substituted Chalcones Combined with Fluoroazobenzenes—New Photoswitches for Application in Biological Systems” (Molecules, 2026)
